One experiment deals with MLCK expression in VSMC. The experiment can be described thus: Blocking Ras signaling in vitro in VSMC: MLCK expression and MLC-P by Western blot. Type of experiment: cell-based, rat. The procedure: In view of the results obtained in Example 3 above, the effect of modulating SRF expression or activity on MLCK expression was assayed. To inhibit SRF activity, an adenovirus (AdSRF-S) lacking exons 4 and 5 was used to express a truncated, dominant negative form of SRF in cells (Davis et al., 2002, Id). Control cells were infected with a virus expressing GFP (AdGFP) at the same multiplicity of infection. In these experiments, VSMC were explanted from aortas of 4 to 7 weeks old SHR or WKY rats as previously described (Ross, 1971, J. Cell. Biol. 50: 172-186) and cultured in Dulbeccos's modified Eagles's medium (DMEM) with 10% fetal bovine serum (FBS). VSMC from WKY rats grown in 6-well plates (90-100% confluent) were infected for 2 hours with either an adenovirus that express a short form of SRF (AdSRF-S) (Davis et al., 2002, Id) or a control virus that expresses GFP (AdGFP). The viruses were washed out and the cells were grown as described above for 48 hours. VSMC were harvested and cell lysates were subjected to western blot analyses.
Dominant negative Ras decreased MLCK mRNA expression in VSMC from SHR (FIG. 4C, inset). To investigate downstream events of Ras signaling, VSMC from SHR were treated with antisense oligonucleotides to ERK, a known member of the Ras signaling pathway. […]
(In general: A western blot detects proteins with antibodies after separation by electrophoresis.)

The test system of a further experiment is SHR. The experiment can be described thus: Systolic blood pressure (tail-cuff) in SHR, drug given continuously for 3 weeks by osmotic pump. Type of experiment: in vivo, rat. The following applies: continuous 3 weeks. The protocol:
The importance of regulating MLCK expression by Ras signaling in vivo was further investigated by treating SHR with U0126 continuously for 3 weeks. U0126 is a specific inhibitor MEK (Favata et al., 1998J. Biol. Chem. 273: 18623-18632), an upstream regulator of ERK in the Ras signaling pathway (Chien & Hoshijima, 2002, Id.). […] In these experiments, Systolic blood pressure (SBP) was measured using tail-cuff sphygmomanometry (IITC Incorporated/Life Sciences Institute, Woodland Hills Calif.). Drugs were delivered via an osmotic pump (DURECT Corporation, Cupertino, Calif.) implanted subcutaneously in the shoulder. The pumps (having a 2 mL capacity at a delivery rate of 2.45 μL/hour) were filled with 13.5 mM U0126 (BIOMOL Research Laboratories, Plymouth Meeting, Pa.) dissolved in 50% DMSO or vehicle alone. Three weeks later, rats were sacrificed and aortas were removed. Some vessels were processed for histology, while other tissue was immediately placed in ice-cold acetone containing 10% trichloroacetic acid (TCA) and 10 mM dithiothreitol (DTT). Endothelial cells were removed by gently rubbing the inside of the vessels with a cell lifter and connective tissue was removed by dissection. The cleaned vessels were then frozen on dry ice and stored at −80° C. for biochemical analysis.
Another experiment was conducted to determine if inhibiting Ras signaling could decrease blood pressure in SHR.

A further experiment relates to WKY rats. As to conditions: age-matched WKY rats, U0126 3 weeks; returned to baseline within 2 weeks of treatment. The source says:
The importance of regulating MLCK expression by Ras signaling in vivo was further investigated by treating SHR with U0126 continuously for 3 weeks. U0126 is a specific inhibitor MEK (Favata et al., 1998J. Biol. Chem. 273: 18623-18632), an upstream regulator of ERK in the Ras signaling pathway (Chien & Hoshijima, 2002, Id.). Rats that were 8 weeks old at the start of treatment were studied because blood pressure increases and blood vessels become thicker between 8 and 12 weeks of age (Yamori, 1984, Id). In these experiments, Systolic blood pressure (SBP) was measured using tail-cuff sphygmomanometry (IITC Incorporated/Life Sciences Institute, Woodland Hills Calif.). Drugs were delivered via an osmotic pump (DURECT Corporation, Cupertino, Calif.) implanted subcutaneously in the shoulder. The pumps (having a 2 mL capacity at a delivery rate of 2.45 μL/hour) were filled with 13.5 mM U0126 (BIOMOL Research Laboratories, Plymouth Meeting, Pa.) dissolved in 50% DMSO or vehicle alone. Three weeks later, rats were sacrificed and aortas were removed. Some vessels were processed for histology, while other tissue was immediately placed in ice-cold acetone containing 10% trichloroacetic acid (TCA) and 10 mM dithiothreitol (DTT). Endothelial cells were removed by gently rubbing the inside of the vessels with a cell lifter and connective tissue was removed by dissection. […]

Experiment [1] relates to ERK-P, MLCK expression and MLC-P. The procedure: Cells or pieces of blood vessels were extracted in buffer containing 9 M urea, 10 mM DTT and 20 mM Tris, pH 8.0. Protein concentrations were measured using the Bradford Protein Assay (BioRad, Richmond, Calif.) and equivalent amounts of protein were subjected to SDS-PAGE or urea-glycerol PAGE, Proteins separated by SDS-PAGE were transferred to nitrocellulose and probed with an antibody to MLCK (de Lanerolle et al., 1981, Proc. Natl. Acad. Sci. 78: 4738-4742), the broad specificity C4 antibody to actin (Lessard, 1988, Cell. Motil. Cytoskeleton. 10: 349-362), antibodies to Rho A or phosphorylated MPasel (Santa Cruz Biotechnology, Santa Cruz, Calif.) or an antibody to phosphorylated ERK½ (Cell Signaling Technology, Beverly, Mass.). Urea-glycerol PAGE was used to separate the unphosphorylated and phosphorylated forms of MLC20, which was then transferred to nitrocellulose and probed with an antibody to MLC20, wherein the stoichiometry of phosphorylation (mol PO4/mol MLC20) was calculated as previously described (Obara et al., 1989, Pflugers. Arch. 414: 134-138). Ail immunoreactive bands were visualized using enhanced chemiluminescence (Amersham Pharmacia Biotech, Piscataway, N.J.) and quantified densitometrically.
(§1) The importance of regulating MLCK expression by Ras signaling in vivo was further investigated by treating SHR with U0126 continuously for 3 weeks. U0126 is a specific inhibitor MEK (Favata et al., 1998J. Biol. Chem. 273: 18623-18632), an upstream regulator of ERK in the Ras signaling pathway (Chien & Hoshijima, 2002, Id.). Rats that were 8 weeks old at the start of treatment were studied because blood pressure increases and blood vessels become thicker between 8 and 12 weeks of age (Yamori, 1984, Id). In these experiments, Systolic blood pressure (SBP) was measured using tail-cuff sphygmomanometry (IITC Incorporated/Life Sciences Institute, Woodland Hills Calif.). Drugs were delivered via an osmotic pump (DURECT Corporation, Cupertino, Calif.) implanted subcutaneously in the shoulder. The pumps (having a 2 mL capacity at a delivery rate of 2.45 μL/hour) were filled with 13.5 mM U0126 (BIOMOL Research Laboratories, Plymouth Meeting, Pa.) dissolved in 50% DMSO or vehicle alone. Three weeks later, rats were sacrificed and aortas were removed. Some vessels were processed for histology, while other tissue was immediately placed in ice-cold acetone containing 10% trichloroacetic acid (TCA) and 10 mM dithiothreitol (DTT). Endothelial cells were removed by gently rubbing the inside of the vessels with a cell lifter and connective tissue was removed by dissection. The cleaned vessels were then frozen on dry ice and stored at −80° C. for biochemical analysis.
ERK-P, MLCK expression and MLC-P were assayed in U0126 SHR as described above.

For experiment [2], the system named is medial smooth muscle layer of aortas and mesenteric arteries.
From the text: as §1
Blood vessels were also assessed histologically. […] Cross-sections (5 microns thick) were cut, deparaffinized and stained with Gomort's Trichrome. Nuclei were visualized with Weigert's iron hematoxylin. The thickness of the medial layer was quantified using NIH ImageJ 1.32 software (National Institutes of Health, Bethesda, […].).

[3] abbreviates: U0126-treated SHR compared to control.

Consider `N#CC(=C(/N)Sc1ccccc1N)/C(C#N)=C(\N)Sc1ccccc1N` [U0126], for which the “MLCK expression in VSMC” value with MLCK expression in VSMC is given as “decreased”. Besides, in the experiment on SHR (SHR 8 weeks old at start, 13.5 mM U0126 in osmotic pump, vehicle 208.9±4.7), the “systolic blood pressure at the end of the 3-week treatment period” value was 150.4±4.1 mmHg. For the same compound, the “systolic blood pressure at the end of the 3-week treatment period” value with SHR (SHR 16 weeks old at start, osmotic pump, vehicle 221.6) is given as 181.4±0.89 mmHg. Besides, the “SBP in normotensive WKY rats” value in the experiment on WKY rats is recorded as “transient decrease”. Further, in experiment [1] (SHR after U0126 treatment), the “RhoA expression in aortas” value is given as “No significant differences” and the “phosphorylated myosin phosphorylase-1 (MPasel-P) in aortas” value is listed as “No significant differences”. Besides, in experiment [1] (setting [3]), the “ERK phosphorylation (ERK-P) in blood vessels” value is on record as “decreased”, the “MLC phosphorylation (MLC-P) in blood vessels” value is recorded as “decreased” and the “MLCK expression in blood vessels” value is “decreased”. Moreover, the “medial smooth muscle layer in aortas and mesenteric arteries” value in experiment [2] (SHR receiving U0126 compared to controls) is on record as “thinner”. In addition, the “total medial area of aortas” value in experiment [2] (SHR, 3 weeks U0126, NIH ImageJ, vehicle 117.8±3.69) was found to be 66.4±2.79 relative units. Also, the “total medial area of mesenteric arteries” value in experiment [2] (SHR, 3 weeks U0126, mean from two animals, vehicle 26.88) turned out to be 16.0.
